In patent US6486098B1, “Herbicidal phenoxypropionic acid N-alkyl-N-2-fluorophenyl amide compounds” (Dongbu Hannong Chemical Co. Ltd., priority 1999, dated 2002):

Tests used:
GLXMA (Soy bean) = assay: Leaf treatment test, soy bean; type: in vivo, Glycine max (L.) MERR; conditions: 14 days after treatment
SORBI (Common sorgum) = assay: Leaf treatment test, common sorgum; type: in vivo, Andropogon sorghum; conditions: 14 days after treatment
Description: (§1) Seeds of rice, wheat, barley, corn, cotton, barnyard grass, common sorgum, large crabgrass and fall panicum were seeded at a pot with a surface area of 600 cm^2. […] 14 days after the treatment, the degree of damage to the plants was rated in % damage in comparison to the development of untreated control.

TRZAW (Wheat) = assay: Leaf treatment test, wheat; type: in vivo, Triticum aestivum L.; conditions: 14 days after treatment
Description: as §1

GOSHI (Cotton) = assay: Leaf treatment test, cotton; type: in vivo, Gossypium; conditions: 14 days after treatment
Description: as §1

ECHCG (Barnyard grass) = assay: Leaf treatment test, barnyard grass; type: in vivo, Echinochloa crus-galli Beauv. var. caudata Kitagawa; conditions: leaf treatment at three leaves, 14 days after treatment
Description: as §1

ZEAMX (Corn) = assay: Leaf treatment test, corn; type: in vivo, Zea mays L.; conditions: 14 days after treatment
Description: as §1

ORYSA (Rice) = assay: Leaf treatment test, rice; type: in vivo, Oryza sativa L. cv. Dongjin; conditions: 14 days after treatment
Description: as §1

DIGSA (Large crabgrass) = assay: Leaf treatment test, large crabgrass; type: in vivo, Digitaria Sanguinalis (L.) SCOP; conditions: 14 days after treatment
Description: as §1

PANDI (Fall panicum) = assay: Leaf treatment test, fall panicum; type: in vivo, Panicum dichotomiflorum Michx; conditions: 14 days after treatment
Description: as §1

Barnyard grass = assay: Leaf treatment test, 4 leaves, barnyard grass (Table 7); type: in vivo, Echinochloa crus-galli Beauv. var. caudata Kitagawa
Description: as §1
(§2) Among the compounds of the formula (1), herbicidal activity of the compounds in table 5 is represented in the following table 6 and 7.

rice = assay: Leaf treatment test, 4 leaves, rice (Table 7); type: in vivo, Oryza sativa L. cv. Dongjin
Description: as §1, §2

Row | SMILES | degree of damage to the plants (% damage) (GLXMA (Soy bean); treated amount 0.025 kg/ha) [%] | degree of damage to the plants (% damage) (GLXMA (Soy bean); treated amount 0.1 kg/ha) [%] | degree of damage to the plants (% damage) (GLXMA (Soy bean); treated amount 0.4 kg/ha) [%] | degree of damage to the plants (% damage) (SORBI (Common sorgum); treated amount 0.025 kg/ha) [%] | degree of damage to the plants (% damage) (SORBI (Common sorgum); treated amount 0.1 kg/ha) [%] | degree of damage to the plants (% damage) (SORBI (Common sorgum); treated amount 0.4 kg/ha) [%] | degree of damage to the plants (% damage) (TRZAW (Wheat); treated amount 0.025 kg/ha) [%] | degree of damage to the plants (% damage) (TRZAW (Wheat); treated amount 0.1 kg/ha) [%] | degree of damage to the plants (% damage) (TRZAW (Wheat); treated amount 0.4 kg/ha) [%] | degree of damage to the plants (% damage) (GOSHI (Cotton); treated amount 0.025 kg/ha) [%] | degree of damage to the plants (% damage) (GOSHI (Cotton); treated amount 0.1 kg/ha) [%] | degree of damage to the plants (% damage) (GOSHI (Cotton); treated amount 0.4 kg/ha) [%] | degree of damage to the plants (% damage) (ECHCG (Barnyard grass); treated amount 0.025 kg/ha) [%] | degree of damage to the plants (% damage) (ECHCG (Barnyard grass); treated amount 0.1 kg/ha) [%] | degree of damage to the plants (% damage) (ECHCG (Barnyard grass); treated amount 0.4 kg/ha) [%] | degree of damage to the plants (% damage) (ZEAMX (Corn); treated amount 0.025 kg/ha) [%] | degree of damage to the plants (% damage) (ZEAMX (Corn); treated amount 0.1 kg/ha) [%] | degree of damage to the plants (% damage) (ZEAMX (Corn); treated amount 0.4 kg/ha) [%] | degree of damage to the plants (% damage) (ORYSA (Rice); treated amount 0.025 kg/ha) [%] | degree of damage to the plants (% damage) (ORYSA (Rice); treated amount 0.1 kg/ha) [%] | also measured
1 | Cc1ccc(N(C)C(=O)C(C)Oc2ccc(Oc3nc4ccc(Cl)cc4o3)cc2)c(F)c1 (centres unmarked) [Compound No. 10] | 0 | 0 | 0 | 30 | 60 | 100 | 0 | 0 | 0 | 0 | 0 | 0 | 0 | 0 | 80 | 0 | 0 | 0 | 0 | 0 | degree of damage to the plants (% damage) (ORYSA (Rice); treated amount 0.4 kg/ha): 0%; degree of damage to the plants (% damage) (DIGSA (Large crabgrass); treated amount 0.025 kg/ha): 70%; degree of damage to the plants (% damage) (DIGSA (Large crabgrass); treated amount 0.1 kg/ha): 95%; degree of damage to the plants (% damage) (DIGSA (Large crabgrass); treated amount 0.4 kg/ha): 100%; degree of damage to the plants (% damage) (PANDI (Fall panicum); treated amount 0.025 kg/ha): 0%; degree of damage to the plants (% damage) (PANDI (Fall panicum); treated amount 0.1 kg/ha): 0%; degree of damage to the plants (% damage) (PANDI (Fall panicum); treated amount 0.4 kg/ha): 70%
2 | CCN(C(=O)C(C)Oc1ccc(Oc2nc3ccc(Cl)cc3o2)cc1)c1ccccc1F (centres unmarked) [Compound No. 2] | 0 | 0 | 10 | 40 | 95 | 100 | 0 | 0 | 0 | 0 | 0 | 0 | 20 | 80 | 95 | 5 | 10 | 70 | 0 | 0 | degree of damage to the plants (% damage) (ORYSA (Rice); treated amount 0.4 kg/ha): 0%; degree of damage to the plants (% damage) (DIGSA (Large crabgrass); treated amount 0.025 kg/ha): 30%; degree of damage to the plants (% damage) (DIGSA (Large crabgrass); treated amount 0.1 kg/ha): 95%; degree of damage to the plants (% damage) (DIGSA (Large crabgrass); treated amount 0.4 kg/ha): 100%; degree of damage to the plants (% damage) (PANDI (Fall panicum); treated amount 0.025 kg/ha): 0%; degree of damage to the plants (% damage) (PANDI (Fall panicum); treated amount 0.1 kg/ha): 100%; degree of damage to the plants (% damage) (PANDI (Fall panicum); treated amount 0.4 kg/ha): 100%
3 | CCOC(=O)C(C)Oc1ccc(Oc2nc3ccc(Cl)cc3o2)cc1 (centres unmarked) [control 2, Fenoxaprop-ethyl, reference compound] | – | – | – | – | – | – | – | – | – | – | – | – | – | – | – | – | – | – | – | – | degree of damage to the plants (% damage) (Barnyard grass; treated amount 0.016 kg/ha): 95%; degree of damage to the plants (% damage) (Barnyard grass; treated amount 0.063 kg/ha): 100%; degree of damage to the plants (% damage) (Barnyard grass; treated amount 0.25 kg/ha): 100%; degree of damage to the plants (% damage) (Barnyard grass; treated amount 1.0 kg/ha): 100%; degree of damage to the plants (% damage) (rice; treated amount 0.016 kg/ha): 20%; degree of damage to the plants (% damage) (rice; treated amount 0.063 kg/ha): 30%; degree of damage to the plants (% damage) (rice; treated amount 0.25 kg/ha): 70%; degree of damage to the plants (% damage) (rice; treated amount 1.0 kg/ha): 85%
4 | CC(Oc1ccc(Oc2nc3ccc(Cl)cc3o2)cc1)C(=O)N(C)c1c(F)cccc1F (centres unmarked) [Compound No. 4, 2-[4-(6-Chloro-2-benzoxazoyloxy)-phenoxy]propionic Acid-N-methyl-N-(2,6-difluoro-phenyl)amide] | 0 | 0 | 20 | 95 | 100 | 100 | 0 | 0 | 0 | 0 | 0 | 0 | 80 | 95 | 100 | 10 | 40 | 100 | 0 | 20 | degree of damage to the plants (% damage) (ORYSA (Rice); treated amount 0.4 kg/ha): 30%; degree of damage to the plants (% damage) (DIGSA (Large crabgrass); treated amount 0.025 kg/ha): 90%; degree of damage to the plants (% damage) (DIGSA (Large crabgrass); treated amount 0.1 kg/ha): 100%; degree of damage to the plants (% damage) (DIGSA (Large crabgrass); treated amount 0.4 kg/ha): 100%; degree of damage to the plants (% damage) (PANDI (Fall panicum); treated amount 0.025 kg/ha): 40%; degree of damage to the plants (% damage) (PANDI (Fall panicum); treated amount 0.1 kg/ha): 100%; degree of damage to the plants (% damage) (PANDI (Fall panicum); treated amount 0.4 kg/ha): 100%
5 | CC(Oc1ccc(Oc2nc3ccc(Cl)cc3o2)cc1)C(=O)N(C)c1ccc(F)cc1F (centres unmarked) [Compound No. 5, 2-[4-(6-Chloro-2-benzoxazoyloxy)-phenoxy]propionic Acid-N-(2,4-difluorophenyl)-N-methyl Amide] | 0 | 0 | 0 | 100 | 100 | 100 | 0 | 0 | 0 | 0 | 0 | 0 | 0 | 100 | 100 | 0 | 30 | 100 | 0 | 0 | degree of damage to the plants (% damage) (ORYSA (Rice); treated amount 0.4 kg/ha): 0%; degree of damage to the plants (% damage) (DIGSA (Large crabgrass); treated amount 0.025 kg/ha): 100%; degree of damage to the plants (% damage) (DIGSA (Large crabgrass); treated amount 0.1 kg/ha): 100%; degree of damage to the plants (% damage) (DIGSA (Large crabgrass); treated amount 0.4 kg/ha): 100%; degree of damage to the plants (% damage) (PANDI (Fall panicum); treated amount 0.025 kg/ha): 40%; degree of damage to the plants (% damage) (PANDI (Fall panicum); treated amount 0.1 kg/ha): 80%; degree of damage to the plants (% damage) (PANDI (Fall panicum); treated amount 0.4 kg/ha): 100%
